Measurements reported in US12514931B2, “Microsphere-drug combination” (UCL Business LTD, priority 2019, dated 2026).

Assays:
[1] = Loading of taxanes onto PLGA TIPS microspheres via antisolvent precipitation (drug loading efficiency, UV 229 nm); format: physicochemical; details: for taxane loaded onto the microspheres from the solution: 0.1% (w/v) pure taxane in ethanol, 5 mg dry PLGA TIPS microspheres, within 60 minutes of initiating mixing
Protocol: A facile method was developed to load DTX and other taxanes such as paclitaxel and cabazitaxel onto TIPS microspheres via antisolvent precipitation (FIG. 1). 5 mg of PLGA TIPS microspheres were transferred into 20 ml clear Type 1B boroscilicate glass vials and sealed with a butyl injection stopper. 4.5 mL of ultrapure water was added to the vial and vortexed for 10 seconds. 0.5 ml of 0.1% (w/v) taxane in ethanol, or a formulation of docetaxel or paclitaxel matching Taxotere® or Taxol® was added using a 1 mL syringe with a 25G needle through the rubber stopper, when the vial was inverted. The vial was then vortexed for 10 seconds and placed on a roller mixer (IKA® Roller 6 Digital; 60 rpm) at room temperature for predetermined periods (5, 15, 30, 60, 120 minutes).
Drug loading efficiency (DLE) of the taxane, such as DTX, onto the TIPS microspheres at each time-point was calculated according to Equation 1. The amount of free taxane left in the solution was measured by UV spectroscopy at the wavelength of 229 nm using a Nanodrop 2000c spectrophotometer (Thermo Scientific, Waltham, MA, USA).
• 1. Dry TIPS PLGA microspheres (size range of 250-350 μm): Docetaxel loaded onto 5 mg PLGA TIPS microspheres as described directly above. […] An equivalent number of solid PLGA microspheres (size range of 250-350 μm) to the quantity of microspheres in 5 mg of dry TIPS PLGA microspheres were transferred into 20 ml clear Type 1B boroscilicate glass vials and sealed with a butyl injection stopper. […] Drug loading efficiency (DLE) of docetaxel (DTX) onto the TIPS microspheres at each time-point was calculated according to Equation 1. The amount of free docetaxel left in the solution was measured by UV spectroscopy at the wavelength of 229 nm using a Nanodrop 2000c spectrophotometer (Thermo Scientific, Waltham, MA, USA). […]

[2] = Docetaxel release from DTX-TIPS microspheres in dynamic perfusion system; format: physicochemical; details: PBS pH 7.4, 37 C, 0.01 mL/min; over 5 days
Protocol: Release profile of DTX from the TIPS microspheres was investigated using a dynamic perfusion system to simulate tissue perfusion of the drug-device combination in the physiological milieu when used in clinic following radical prostatectomy. Thus, the perfusion system was placed inside an incubator at 37° C. and physiological simulated medium (phosphate buffed saline (PBS); pH 7.4) was used as perfusate. DTX-loaded microspheres were mixed with 100 μl of 70% (v/v) GranuGel® (Convatec, UK) diluted in ultrapure water and the mixture was placed between two 25 mm circular filter papers (Whatman® qualitative cellulose filter paper, Grade 1), where their positions were held by a Swin-Lok™ plastic membrane filter holder. A hypodermic needle (18G×40 mm) connecting the outlet of the filter holder, was inserted through the lid of a 50 ml polypropylene container to collect the perfusate. PBS was pumped through the filter holder by a peristaltic pump (Harvard Apparatus) at a flow rate of 0.01 mL/min. […]
The amount of DTX released in the perfusate was determined using a predetermined standard curve. At each measurement, the concentration of DTX in the release medium collected in the polypropylene container was determined by UV spectroscopy at 229 nm as described above, to calculate the cumulative DTX release according to Equation 2.

[3] = system: PC3 cells; test: Colony formation assay with perfusate from DTX-TIPS microspheres; format: cell-based, human; details: DTX released into perfusate during the first 5 days
Protocol: PC3 cells were maintained in Ham's F12-K medium (Kaighn's modification) (Invitrogen, 21127-022) supplemented with 10% (v/v) foetal bovine serum (FBS) and 1% antibiotics (referred to henceforth as complete medium). Cells were cultured at 37° C. under 5% CO2 atmosphere in a humidified incubator.
PC3 cells cultured in 6 well plates were incubated for 48 hours in 2 ml of perfusate (conditioned complete culture medium) collected from DTX-TIPS microspheres loaded into the perfusion system, as outlined above. Colony formation assays were performed as previously described (Franken NAP, Rodermond HM, Stap J, Haveman J, van Bree C. Clonogenic assay of cells in vitro. Nat Protoc. 2006; 1(5):2315-2319). […] The colonies were counted in ImageJ using the ‘Colony Counter’ plug in (processing parameters: size 100-30,000; circularity 0.5-1) (https://imagej.nih.gov/ij/plugins/colony-counter.html).
Plating efficiency (PE) was estimated by dividing the number of colonies counted by the number of cells initially seeded. […]

[4] = system: PC3 xenograft tumour; test: In vivo tumour growth inhibitory activity, PC3 xenograft; set-up: species or system NSG immunodeficient mice
Protocol: Female NSG™ immunodeficient mice (NOD.Cg-PrkdscidIl2rgtm1Wjl/SzJ; Charles River), aged 6-7 weeks and 18-20 g in body weight, were acclimatised for 1 week prior to injection of tumour cells. PC3 cells (5.0×10^6 cells in 100 μl phosphate buffered saline [PBS]) were injected subcutaneously into the right flank of each mouse. The dimensions of tumour were measured three times per week using digital callipers and the tumour volume calculated using the following formula: […]

[5] = Measurement of DTX in plasma after administration (LC-MS/MS); format: in vivo, BALB/cAnNCrl mice
Protocol: Docetaxel-loaded TIPS microspheres were prepared via anti-solvent precipitation, as outlined above. […] For measurement of circulating DTX in plasma, blood samples were collected via the tail vein at day 0 (pre-dose), and days 1, 2, 3, 7, 10 then every 5 days until day 35 immediately before the end of in life phase. Blood samples were collected into 10 μl capillaries containing sodium heparin (Hirschmann, Eberstadt, Germany) and placed in wells of a 2 ml deep well plate that was stored at −80° C. until extraction.
On the day of the extraction, calibration curve and sample plates were thawed. 125 μl of water:acetonitrile containing 0.4% […] was added to blanks, calibration curve and QCs. 125 μl of 70:30 water:acetonitrile containing 0.4% DMSO was added to all samples. 40 μl of each […]:water:acetonitrile sample was taken and protein precipitated with 120 μl acetonitrile containing DTX-D9 (25 nM). Samples were mixed and centrifuged. Supernatant was taken and diluted 40:60 with 0.5% sodium acetate (20 μM) in ammonium acetate (10 mM, pH5).
Liquid chromatography-mass spectrometry analysis was carried out with a Waters (Milford, MA) H-class Acquity solvent manager and sample manager on a Waters Acquity HSS PFP column (1.8 μm, 50 mm×2.1 mm id) with a gradient consisting of 10 mM ammonium acetate (pH 5.0) and acetonitrile mobile phases. The flow rate was 0.6 ml/min and the run time 5.6 minutes. Analyte and internal standard were ionised using electrospray ionisation in positive ion mode. Detection of analytes was via tandem mass spectrometry (MS/MS) using a Waters Xevo TQ-S mass spectrometer in the multiple reaction monitoring (MRM) mode. For DTX and DTX-D9 (IS), the transitions m/z 830.4-248.1/304.2 and m/z 839.4-313.0 were monitored respectively. The calibration curve was linear over the concentration range […].

[6] = DTX concentration in tissues from explanted organs (LC-MS/MS); format: in vivo, NSG mice; details: NSG, mouse, intravenous, 10 mg/kg; for concentration at 1 day: day 1 post-administration; for concentration at 10 day: day 10 post-administration; for concentration at 35 day: day 35 post-administration
Protocol: At the end of the in-life phase (day 1, 10 and 35 post-treatment) the mice were euthanised by overdose of CO2, followed by cervical dislocation and organs (heart, liver, kidneys, lungs and spleen) were collected, weighed and immediately frozen in liquid nitrogen before storage at −80° C. until further analysis. Evaluation of docetaxel concentrations was carried out by liquid chromatography tandem mass spectrometry in tissue following homogenisation in 3 ml/g (spleens 5 ml/g) 10 mM PBS using a Precellys 24 homogeniser (Bertin technologies, Montigny-le-Bretonneux, France). 45 μl tissue homogenate was spiked with 5 μl DMSO, samples were mixed and protein precipitated with 150 μl acetonitrile containing DTX-D9 as internal standard (25 nM). Samples were mixed and centrifuged. Supernatant was taken and diluted 40:60 with 0.5% sodium acetate (20 μM) in ammonium acetate (10 mM, pH 5). Blanks, calibration curve and QCs were prepared as above using tissues obtained from the same strain of mice (NSG) and spiked with DMSO, working calibration standard and working QC respectively. Blanks consisted of protein precipitated with acetonitrile alone, blank+, standards and QCs were protein precipitated with acetonitrile containing DTX-D9.

SMILES: CC(=O)O[C@@]12CO[C@@H]1C[C@H](O)[C@@]1(C)C(=O)[C@H](O)C3=C(C)[C@@H](OC(=O)[C@H](O)[C@@H](NC(=O)OC(C)(C)C)c4ccccc4)C[C@@](O)([C@@H](OC(=O)c4ccccc4)[C@H]21)C3(C)C [docetaxel, Docetaxel]
- taxane loaded onto the microspheres from the solution [1]: Approximately 80%
- time of maximum loading onto the TIPS particles ([1]; room temperature, no heating or cooling steps): ≤ 60 min
- cumulative release of total DTX loaded [2]: approximately 95%
- toxicity against the PC3 cells in the colony forming assay [3]: 100%
- tumour volume over the study period ([4]; Example 8, compared with saline or control microsphere group): Tumour growth inhibition was most apparent
- tumour volume / tumour growth inhibition ([4]; Example 9, DTX-TIPS compared with I.V. DTX, until day 21): did not increase
- plasma DTX level, I.V. DTX relative to DTX-TIPS group ([5]; 1 hour post-administration): 102 fold
- plasma DTX level, I.V. DTX relative to DTX-TIPS group ([5]; 24 hour post-administration): 8 fold
- DTX in plasma ([5]; 48 hours, 72 hours, day 10 and day 15, I.V. 10 mg/kg once weekly for three weeks): detectable levels of DTX remaining in the plasma
- concentration at 1 day ([6]; Heart): 340 ± 42.9 nM
- concentration at 10 day ([6]; Heart): 90.1 ± 19.4 nM
- concentration at 35 day ([6]; Heart): 0.97 ± 2.37 nM
- concentration at 1 day ([6]; Kidney): 115 ± 22.4 nM
- concentration at 10 day ([6]; Kidney): 115 ± 22.4 nM
- concentration at 35 day ([6]; Kidney): 1.17 ± 2.86 nM
- concentration at 1 day ([6]; Liver): 87.3 ± 7.85 nM
- concentration at 10 day ([6]; Liver): 27 ± 11.9 nM
- concentration at 35 day ([6]; Liver): 0 nM
- concentration at 1 day ([6]; Lung): 641 ± 92.4 nM
- concentration at 10 day ([6]; Lung): 256 ± 35.5 nM
- concentration at 35 day ([6]; Lung): 13.8 ± 16.2 nM
- concentration at 1 day ([6]; Spleen): 14.1 ± 11.9 nM
- concentration at 10 day ([6]; Spleen): 35.3 ± 51.9 nM
- concentration at 35 day ([6]; Spleen): 0 nM

SMILES: CO[C@H]1C(=O)[C@]2(C)[C@@H](OC)C[C@H]3OC[C@@]3(OC(C)=O)[C@H]2[C@H](OC(=O)c2ccccc2)[C@]2(O)C[C@H](OC(=O)[C@H](O)[C@@H](NC(=O)OC(C)(C)C)c3ccccc3)C(C)=C1C2(C)C [cabazitaxel]
- taxane loaded onto the microspheres from the solution [1]: about 60%
